Earlier results, collected in US20160331796A1, “ENRICHED AMARANTHUS BLITOIDES COMPOSITIONS AND USES THEREOF” (priority 2010, published 2016).

Test system: prostate cancer cell lines, and primary prostate tumor lines

## Vitamin D
In vitro
  effect on invasion of prostate cancer cells: decrease invasion
Integrins associated with increased migration and invasion of prostate cancer cells in vitro
  expression of α6 and β4 integrins: decreased expression
Several tumor cell types, including prostate cancer cell lines and primary prostate tumor lines
  effect on proliferation and differentiation of tumor cell types: inhibit proliferation and promote differentiation
